Data set [1] can be described thus: Test B: Cytotoxicity Assay. The conditions noted are these: human, uninfected MT-4 cells, same protocol as Test A. In kind it is cell-based. An outline of the steps: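 Uninfected MT-4 cells (2000 per well) incubated with diluted compound at 37° C. for 5 days, following the antiviral protocol without HIV-IIIb.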
The subject of a further data set is HIV-IIIb. Nature of the data set: Test A: Antiviral Assay in MT4 Cells. The format is cell-based, HIV-1. Particulars: Human immunodeficiency virus 1, IIIB, MT4, 120 h; for inhibition at 0.2 µM: read-out: % inhibition at 0.2 μM; for inhibition at 2 µM: read-out: % inhibition at 2 μM. On the procedure: Test A: Antiviral Assay in MT4 Cells
MT-4 cells were next mixed with HIV-IIIb at an m.o.i of 0.003 for 1 hour, after which time 35 μL of virus/cell mixture (2000 cells) was immediately added to each well containing 40 μL of diluted compound. The plates were then incubated at 37° C. for 5 days. […] Cell lysis was carried out by incubating at room temperature for 10 min and then chemiluminescence was read.

As a reminder, the CC50 is the concentration giving 50% cytotoxicity. A lower CC50 goes with harm at low concentration. As usually defined, the inhibition is the percentage by which the read-out fell short of the control.

`CNC(=O)c1nn(CC(=O)N[C@@H](Cc2cc(F)cc(F)c2)c2nc(C#CC(C)(C)O)ccc2-c2ccc(Cl)c3c(NS(C)(=O)=O)nn(C)c23)c2c1[C@H]1C[C@H]1C2(F)F` [Compound 165, (3bS,4aR)-1-(2-(((S)-1-(3-(4-chloro-1-methyl-3-(methylsulfonamido)-1H-indazol-7-yl)-6-(3-hydroxy-3-methylbut-1-yn-1-yl)pyridin-2-yl)-2-(3,5-difluorophenyl)ethyl)amino)-2-oxoethyl)-5,5-difluoro-N-methyl-3b,4,4a,5-tetrahydro-1H-cyclopropa[3,4]cyclopenta[1,2-c]pyrazole-3-carboxamide] registered a half-maximal cytotoxic concentration (CC50) at 5 days in data set [1] of 5.46 µM. Further, in the data set on HIV-IIIb, the inhibition at 0.2 µM is 72% and the inhibition at 2 µM amounted to 72%.
For `COCC(=O)Nc1nn(C)c2c(-c3ccc(C#CC(C)(C)O)nc3[C@H](Cc3cc(F)cc(F)c3)NC(=O)Cn3nc(C(F)F)c4c3C(F)(F)[C@@H]3C[C@H]43)ccc(Cl)c12` [Compound 84, N—((S)-1-(3-(4-chloro-3-(2-methoxyacetamido)-1-methyl-1H-indazol-7-yl)-6-(3-hydroxy-3-methylbut-1-yn-1-yl)pyridin-2-yl)-2-(3,5-difluorophenyl)ethyl)-2-((3b-S,4aR)-3-(difluoromethyl)-5,5-difluoro-3b,4,4a,5-tetrahydro-1H-cyclopropa[3,4]cyclopenta[1,2-c]pyrazol-1-yl)acetamide], the CC50 at 5 days in data set [1] is 8.73 µM. In the data set with HIV-IIIb, the inhibition at 0.2 µM was 100% and the inhibition at 2 µM amounted to 100%.
`Cn1nc(NS(C)(=O)=O)c2c(Cl)ccc(-c3ccc(C#CC(C)(O)CF)nc3[C@H](Cc3cc(F)cc(F)c3)NC(=O)Cn3nc(C(F)(F)F)c4c3C(F)(F)[C@@H]3C[C@H]43)c21` (stereo partly drawn) [Compound 152, N-((1S)-1-(3-(4-chloro-1-methyl-3-(methylsulfonamido)-1H-indazol-7-yl)-6-(4-fluoro-3-hydroxy-3-methylbut-1-yn-1-yl)pyridin-2-yl)-2-(3,5-difluorophenyl)ethyl)-2-((3b-S,4aR)-5,5-difluoro-3-(trifluoromethyl)-3b,4,4a,5-tetrahydro-1H-cyclopropa[3,4]cyclopenta[1,2-c]pyrazol-1-yl)acetamide] came in with a CC50 at 5 days in data set [1] of 11.9 µM. Further, in the data set with HIV-IIIb, the inhibition at 0.2 µM worked out at 89% and the inhibition at 2 µM is 89%.
The compound `Cn1nc(NC(=O)c2ccno2)c2c(Cl)ccc(-c3ccc(C#CC(C)(C)O)nc3[C@H](Cc3cc(F)cc(F)c3)NC(=O)Cn3nc(C(F)F)c4c3C(F)(F)[C@@H]3C[C@H]43)c21` [Compound 87, N-(4-chloro-7-(2-((S)-1-(2-((3b-S,4aR)-3-(difluoromethyl)-5,5-difluoro-3b,4,4a,5-tetrahydro-1H-cyclopropa[3,4]cyclopenta[1,2-c]pyrazol-1-yl)acetamido)-2-(3,5-difluorophenyl)ethyl)-6-(3-hydroxy-3-methylbut-1-yn-1-yl)pyridin-3-yl)-1-methyl-1H-indazol-3-yl)isoxazole-5-carboxamide] returned a CC50 at 5 days in data set [1] of 6.8 µM. Also, in the data set on HIV-IIIb, the inhibition at 0.2 µM was 95% and the inhibition at 2 µM stood at 96%.
For `CC(C)n1cc(-c2ccc(-c3ccc(Cl)c4c(NS(C)(=O)=O)nn(C)c34)c([C@H](Cc3cc(F)cc(F)c3)NC(=O)Cn3nc(C(F)(F)F)c4c3C(F)(F)[C@@H]3C[C@H]43)n2)cn1` [Compound 174, N—((S)-1-(3-(4-chloro-1-methyl-3-(methylsulfonamido)-1H-indazol-7-yl)-6-(1-isopropyl-1H-pyrazol-4-yl)pyridin-2-yl)-2-(3,5-difluorophenyl)ethyl)-2-((3bS,4aR)-5,5-difluoro-3-(trifluoromethyl)-3b,4,4a,5-tetrahydro-1H-cyclopropa[3,4]cyclopenta[1,2-c]pyrazol-1-yl)acetamide] the same measures were above 53.2 µM, 85% and 85%.
For `CC(C)(O)C#Cc1ncc(-c2ccc3c(c2)C(=O)NC3)c([C@H](Cc2cc(F)cc(F)c2)NC(=O)Cn2nc(C(F)(F)F)c3c2C(F)(F)[C@@H]2C[C@H]32)n1` [Compound 22C, 2-((3bS,4aR)-5,5-difluoro-3-(trifluoromethyl)-3b,4,4a,5-tetrahydro-1H-cyclopropa[3,4]cyclopenta[1,2-c]pyrazol-1-yl)-N—((S)-2-(3,5-difluorophenyl)-1-(2-(3-hydroxy-3-methylbut-1-yn-1-yl)-5-(3-oxoisoindolin-5-yl)pyrimidin-4-yl)ethyl)acetamide] the same measures were 4.95 µM, 92% and 92%.
For `Cn1nc(NS(=O)(=O)c2cn[nH]c2)c2cccc(-c3ccc(C#CC(C)(C)O)nc3[C@H](Cc3cc(F)cc(F)c3)NC(=O)Cn3nc(C(F)(F)F)c4c3C(F)(F)[C@@H]3C[C@H]43)c21` [Compound 49, 2-((3bS,4aR)-5,5-difluoro-3-(trifluoromethyl)-3b,4,4a,5-tetrahydro-1H-cyclopropa[3,4]cyclopenta[1,2-c]pyrazol-1-yl)-N—((S)-2-(3,5-difluorophenyl)-1-(6-(3-hydroxy-3-methylbut-1-yn-1-yl)-3-(1-methyl-3-(1H-pyrazole-4-sulfonamido)-1H-indazol-7-yl)pyridin-2-yl)ethyl)acetamide] the same measures were 24 µM, 87% and 87%.
In turn, `CC(C)(O)C#Cc1ncc(-c2ccc3c(c2)C(=O)NC3)c([C@H](Cc2cc(F)cc(F)c2)NC(=O)Cn2nc(C(F)F)c3c2C(F)(F)CCC3(F)F)n1` [Compound 21H, (S)-2-(3-(difluoromethyl)-4,4,7,7-tetrafluoro-4,5,6,7-tetrahydro-1H-indazol-1-yl)-N-(2-(3,5-difluorophenyl)-1-(2-(3-hydroxy-3-methylbut-1-yn-1-yl)-5-(3-oxoisoindolin-5-yl)pyrimidin-4-yl)ethyl)acetamide] had a CC50 at 5 days in data set [1] of 7.63 µM. In the data set on HIV-IIIb, the inhibition at 0.2 µM turned out to be 92% and the inhibition at 2 µM came out at 92%.
In data set [1], `CCNS(=O)(=O)Nc1nn(C)c2c(-c3ccc(C#CC(C)(C)O)nc3[C@H](Cc3cc(F)cc(F)c3)NC(=O)Cn3nc(C(F)(F)F)c4c3C(F)(F)[C@@H]3C[C@H]43)cccc12` [Compound 53, 2-((3bS,4aR)-5,5-difluoro-3-(trifluoromethyl)-3b,4,4a,5-tetrahydro-1H-cyclopropa[3,4]cyclopenta[1,2-c]pyrazol-1-yl)-N—((S)-2-(3,5-difluorophenyl)-1-(3-(3-((N-ethylsulfamoyl)amino)-1-methyl-1H-indazol-7-yl)-6-(3-hydroxy-3-methylbut-1-yn-1-yl)pyridin-2-yl)ethyl)acetamide] gave a CC50 at 5 days of 8.03 µM. In addition, in the data set on HIV-IIIb, the inhibition at 0.2 µM was 92% and the inhibition at 2 µM stood at 92%.
`CC(=O)Nc1nn(C)c2c(-c3ccc(C#CC(C)(C)O)nc3[C@H](Cc3cc(F)cc(F)c3)NC(=O)Cn3nc(C(F)F)c4c3C(F)(F)[C@@H]3C[C@H]43)ccc(Cl)c12` [Compound 94, N—((S)-1-(3-(3-acetamido-4-chloro-1-methyl-1H-indazol-7-yl)-6-(3-hydroxy-3-methylbut-1-yn-1-yl)pyridin-2-yl)-2-(3,5-difluorophenyl)ethyl)-2-((3b-S,4aR)-3-(difluoromethyl)-5,5-difluoro-3b,4,4a,5-tetrahydro-1H-cyclopropa[3,4]cyclopenta[1,2-c]pyrazol-1-yl)acetamide] had a CC50 at 5 days in data set [1] of 7.58 µM. Besides, in the data set on HIV-IIIb, the inhibition at 0.2 µM is 100% and the inhibition at 2 µM turned out to be 100%.
In data set [1], `Cn1nc(NS(C)(=O)=O)c2cccc(-c3cnc(C#CC(C)(C)O)nc3[C@H](Cc3cc(F)cc(F)c3)NC(=O)Cn3nc(C(F)(F)F)c4c3C(F)(F)[C@@H]3C[C@H]43)c21` [Compound 41, 2-((3bS,4aR)-5,5-difluoro-3-(trifluoromethyl)-3b,4,4a,5-tetrahydro-1H-cyclopropa[3,4]cyclopenta[1,2-c]pyrazol-1-yl)-N—((S)-2-(3,5-difluorophenyl)-1-(2-(3-hydroxy-3-methylbut-1-yn-1-yl)-5-(1-methyl-3-(methylsulfonamido)-1H-indazol-7-yl)pyrimidin-4-yl)ethyl)acetamide] registered a CC50 at 5 days of 7.63 µM. In the data set on HIV-IIIb, the inhibition at 0.2 µM is 98% and the inhibition at 2 µM stood at 98%.
The compound `Cn1nc(NS(C)(=O)=O)c2c(Cl)ccc(-c3ccc(C#CC(C)(C)O)nc3[C@H](Cc3cc(F)cc(F)c3)NC(=O)Cc3cccc(Cl)c3Cl)c21` [Compound 129, (S)—N-(1-(3-(4 chloro-1-methyl-3-(methylsulfonamido)-1H-indazol-7-yl)-6-(3-hydroxy-3-methylbut-1-yn-1-yl)pyridin-2-yl)-2-(3,5-difluorophenyl)ethyl)-2-(2,3-dichlorophenyl)acetamide] yielded a CC50 at 5 days in data set [1] of 12.1 µM. In addition, in the data set with HIV-IIIb, the inhibition at 0.2 µM turned out to be 54% and the inhibition at 2 µM was determined as 82%.
The compound `Cn1nc(NS(N)(=O)=O)c2c(Cl)ccc(-c3ccc(C#CC(C)(C)O)nc3[C@H](Cc3cc(F)cc(F)c3)NC(=O)Cn3nc(C(F)F)c4c3C(F)(F)[C@@H]3C[C@H]43)c21` [Compound 70, N—((S)-1-(3-(4-chloro-1-methyl-3-(sulfamoylamino)-1H-indazol-7-yl)-6-(3-hydroxy-3-methylbut-1-yn-1-yl)pyridin-2-yl)-2-(3,5-difluorophenyl)ethyl)-2-((3b-S,4aR)-3-(difluoromethyl)-5,5-difluoro-3b,4,4a,5-tetrahydro-1H-cyclopropa[3,4]cyclopenta[1,2-c]pyrazol-1-yl)acetamide] returned a CC50 at 5 days in data set [1] of 9.98 µM. In the data set on HIV-IIIb, the inhibition at 0.2 µM turned out to be 94% and the inhibition at 2 µM came to 94%.

Values taken from patent publication US20140303164A1, “THERAPEUTIC COMPOUNDS” (Gilead Sciences, Inc., priority 2013, published 2014).
